According to patent publication US12590066B2, “Fused-heterocyclyl-carbonohydrazonoyl dicyanide compounds and use thereof” (KOREA INSTITUTE OF SCIENCE AND TECHNOLOGY, priority 2020, dated 2026):

Experiments:
[1] = system: Tau-BiFC cells; assay: Cell viability (stained nuclei count) in Tau-BiFC cells; type: cell-based; conditions: 10 μM compound, 48 hours; Forskolin-only group = 100% cell viability
Protocol: In order to select novel tau protein aggregation-inhibiting substances, tau-BiFC cell model, in which formation of tau oligomers in living cells is easily observed, was used. Tau-BiFC cells were aliquoted into a 384-well plate. On the next day, the cells were treated with each of the compounds prepared according to Examples 1 to 57 at concentrations of 1 μM, 3 μM, and 10 μM, together with Forskolin (at a treatment concentration of 30 μM), which is a compound inducing tau protein aggregation by activating tau phosphorylase PKA. After 48 hours, nuclei in the cells were stained using Hoechst (at a treatment concentration of 2 μg/mL), and BiFC fluorescence intensity was automatically measured using Operetta (PerkinElmer) to count stained nuclei in each well out of the entire well plate. The group treated only with Forskolin, which induces tau protein aggregation, was set to a reference point of a 100% tau protein-aggregated state, and the effects of the compounds were confirmed using the equation “BiFC fluorescence intensity due to compound synthesized according to embodiment of present invention/(fluorescence intensity of control group treated only with Forskolin inducing tau protein aggregation−fluorescence intensity of untreated control group)×100”. Furthermore, the degree of cytotoxicity induced by the newly synthesized compound was also measured based on the 100% cell viability of the group treated only with Forskolin as a reference, and the cytotoxicity value of each compound was calculated using the equation “(number of stained nuclei in group treated with compound/number of stained nuclei in group treated with Forskolin)×100”. Based on the treatment results, substances inhibiting intracellular tau protein aggregation were selected from a series of candidate groups showing a tau protein aggregation inhibition rate of 70% or more and cell viability of 100% at a compound treatment concentration of 10 μM or more. […]

[2] = biological target: T1, tau protein (Homo sapiens, UniProt P10636); assay: Tau-BiFC cell model, inhibition of Forskolin-induced tau protein aggregation; type: cell-based; conditions: Forskolin 30 μM, 48 hours; for Tau BiFC in cells Response (% @10 μM): 10 μM compound, Forskolin-only group = 100% tau protein-aggregated state; for IC50: tau-BiFC cells
T1 construct: BiFC fluorescent-protein fragments (type and halves not specified); expressed in transfected cells
T1 sequence (P10636 1-441 isoform P10636-8): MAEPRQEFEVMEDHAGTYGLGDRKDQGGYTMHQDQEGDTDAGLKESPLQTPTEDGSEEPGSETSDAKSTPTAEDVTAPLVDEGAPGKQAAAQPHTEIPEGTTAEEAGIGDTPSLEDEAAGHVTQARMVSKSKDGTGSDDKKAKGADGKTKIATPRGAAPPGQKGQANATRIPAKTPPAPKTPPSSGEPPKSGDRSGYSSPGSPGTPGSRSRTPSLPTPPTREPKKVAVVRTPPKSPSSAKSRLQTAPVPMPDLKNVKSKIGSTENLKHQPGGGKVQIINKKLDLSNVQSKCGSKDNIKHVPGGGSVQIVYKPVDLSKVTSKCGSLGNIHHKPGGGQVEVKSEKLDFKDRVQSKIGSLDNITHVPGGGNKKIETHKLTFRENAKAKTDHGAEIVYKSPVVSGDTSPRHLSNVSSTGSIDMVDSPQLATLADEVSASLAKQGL
Protocol: In order to select novel tau protein aggregation-inhibiting substances, tau-BiFC cell model, in which formation of tau oligomers in living cells is easily observed, was used. Tau-BiFC cells were aliquoted into a 384-well plate. On the next day, the cells were treated with each of the compounds prepared according to Examples 1 to 57 at concentrations of 1 μM, 3 μM, and 10 μM, together with Forskolin (at a treatment concentration of 30 μM), which is a compound inducing tau protein aggregation by activating tau phosphorylase PKA. After 48 hours, nuclei in the cells were stained using Hoechst (at a treatment concentration of 2 μg/mL), and BiFC fluorescence intensity was automatically measured using Operetta (PerkinElmer) to count stained nuclei in each well out of the entire well plate. The group treated only with Forskolin, which induces tau protein aggregation, was set to a reference point of a 100% tau protein-aggregated state, and the effects of the compounds were confirmed using the equation “BiFC fluorescence intensity due to compound synthesized according to embodiment of present invention/(fluorescence intensity of control group treated only with Forskolin inducing tau protein aggregation−fluorescence intensity of untreated control group)×100”. Furthermore, the degree of cytotoxicity induced by the newly synthesized compound was also measured based on the 100% cell viability of the group treated only with Forskolin as a reference, and the cytotoxicity value of each compound was calculated using the equation “(number of stained nuclei in group treated with compound/number of stained nuclei in group treated with Forskolin)×100”. Based on the treatment results, substances inhibiting intracellular tau protein aggregation were selected from a series of candidate groups showing a tau protein aggregation inhibition rate of 70% or more and cell viability of 100% at a compound treatment concentration of 10 μM or more.
In order to evaluate dose-dependent tau protein aggregation inhibition effects of the compounds selected according to Experimental Example 1 on tau protein aggregation, tau-BiFC cells were treated with the selected compounds at concentrations of 0.03 μM, […], 0.3 μM, 1 μM, 3 μM, 10 μM, and 30 μM, respectively, together with Forskolin (at a treatment concentration of 30 μM), which is a tau protein aggregation-inducing substance. After 48 hours, tau protein aggregation reaction and degrees of cytotoxicity were analyzed by observing images of the cells. IC50 and toxicity of the compounds were analyzed by way of nonlinear regression analysis of prism software (Graph Pad).

Structure (SMILES)	Cell viability (% @10 μM) [1] [%]	Tau BiFC in cells Response (% @10 μM) [2] [%]	IC50 [2] [nM]
CCn1c(=O)n(C(C)C)c2cc(NN=C(C#N)C#N)cnc21 [Compound 49, (3-ethyl-1-isopropyl-2-oxo-2,3-dihydro-1H-imidazo[4,5-b]pyridin-6-yl)carbonohydrazonoyl dicyanide]	139	−34	50
Cn1c(=O)n(-c2ccccc2)c2cc(NN=C(C#N)C#N)cnc21 [Compound 47, (3-methyl-2-oxo-1-phenyl-2,3-dihydro-1H-imidazo[4,5-b]pyridin-6-yl)carbonohydrazonoyl dicyanide]	117	13	–
N#CC(C#N)=NNc1ccc2cc[nH]c(=O)c2c1 [Compound 1, (1-oxo-1,2-dihydroisoquinolin-7-yl)carbonohydrazonoyl dicyanide]	152.9	0	130
COc1cc2c(cc1NN=C(C#N)C#N)n(C)c(=O)n2C [Compound 32, (6-methoxy-1,3-dimethyl-2-oxo-2,3-dihydro-1H-benzo[d]imidazol-5-yl)carbonohydrazonoyl dicyanide]	132	38	–
Cn1c(=O)ccc2cc(NN=C(C#N)C#N)ccc21 [Compound 25, (1-methyl-2-oxo-1,2-dihydroquinolin-6-yl)carbonohydrazonoyl dicyanide]	118	−16	20
CCn1c(=O)n(C(F)F)c2cc(NN=C(C#N)C#N)cnc21 [Compound 50, (1-(difluoromethyl)-3-ethyl-2-oxo-2,3-dihydro-1H-imidazo[4,5-b]pyridin-6-yl)carbonohydrazonoyl dicyanide]	119	2	–
CCn1c(=O)n(C)c2ncc(NN=C(C#N)C#N)cc21 [Compound 44, (1-ethyl-3-methyl-2-oxo-2,3-dihydro-1H-imidazo[4,5-b]pyridin-6-yl)carbonohydrazonoyl dicyanide]	138	10	–
N#CC(C#N)=NNc1ccc2oc(=O)n(C(F)F)c2c1 [Compound 30, (3-(difluoromethyl)-2-oxo-2,3-dihydrobenzo[d]oxazol-5-yl)carbonohydrazonoyl dicyanide]	127	36	–
Cn1c(=O)n(C2CC2)c2ncc(NN=C(C#N)C#N)cc21 [Compound 51, (3-cyclopropyl-1-methyl-2-oxo-2,3-dihydro-1H-imidazo[4,5-b]pyridin-6-yl)carbonohydrazonoyl dicyanide]	137	−11	660
Cn1c(=O)n(C(F)F)c2cc(NN=C(C#N)C#N)cnc21 [Compound 46, (1-(difluoromethyl)-3-methyl-2-oxo-2,3-dihydro-1H-imidazo[4,5-b]pyridin-6-yl)carbonohydrazonoyl dicyanide]	131	23	–
CCn1c(=O)n(C2CC2)c2ncc(NN=C(C#N)C#N)cc21 [Compound 52, (3-cyclopropyl-1-ethyl-2-oxo-2,3-dihydro-1H-imidazo[4,5-b]pyridin-6-yl)carbonohydrazonoyl dicyanide]	133	−30	200
Cn1c(=O)n(C)c2cc(NN=C(C#N)C#N)c(F)cc21 [Compound 9, (6-fluoro-1,3-dimethyl-2-oxo-2,3-dihydro-1H-benzo[d]imidazol-5-yl)carbonohydrazonoyl dicyanide]	155.3	0	170
N#CC(C#N)=NNc1ccc2[nH]c(=O)ccc2c1 [Compound 8, (2-oxo-1,2-dihydroquinolin-6-yl)carbonohydrazonoyl dicyanide]	152.5	0	430
CC(C)n1c(=O)n(C)c2ncc(NN=C(C#N)C#N)cc21 [Compound 45, (1-isopropyl-3-methyl-2-oxo-2,3-dihydro-1H-imidazo[4,5-b]pyridin-6-yl)carbonohydrazonoyl dicyanide]	113	−24	200
CC(C)n1c(=O)n(C)c2cc(NN=C(C#N)C#N)cnc21 [Compound 54, (3-isopropyl-1-methyl-2-oxo-2,3-dihydro-1H-imidazo[4,5-b]pyridin-6-yl)carbonohydrazonoyl dicyanide]	118	−38	300
Cc1cc(=O)[nH]c2ccc(NN=C(C#N)C#N)cc12 [Compound 26, (4-methyl-2-oxo-1,2-dihydroquinolin-6-yl)carbonohydrazonoyl dicyanide]	120	−5	770
CCn1c(=O)n(C2CC2)c2ccc(NN=C(C#N)C#N)cc21 [Compound 41, (1-cyclopropyl-3-ethyl-2-oxo-2,3-dihydro-1H-benzo[d]imidazol-5-yl)carbonohydrazonoyl dicyanide]	112	−54	20
CCn1c(=O)n(C(F)F)c2cc(NN=C(C#N)C#N)ccc21 [Compound 39, (3-(difluoromethyl)-1-ethyl-2-oxo-2,3-dihydro-1H-benzo[d]imidazol-5-yl)carbonohydrazonoyl dicyanide]	106	−45	10
Cn1c(=O)oc2ccc(NN=C(C#N)C#N)cc21 [Compound 28, (3-methyl-2-oxo-2,3-dihydrobenzo[d]oxazol-5-yl)carbonohydrazonoyl dicyanide]	134	13	–
Cn1c(=O)n(C2CC2)c2ccc(NN=C(C#N)C#N)cc21 [Compound 40, (1-cyclopropyl-3-methyl-2-oxo-2,3-dihydro-1H-benzo[d]imidazol-5-yl)carbonohydrazonoyl dicyanide]	122	−38	30
Cc1cc2c(cc1NN=C(C#N)C#N)n(C)c(=O)n2C [Compound 31, (1,3,6-trimethyl-2-oxo-2,3-dihydro-1H-benzo[d]imidazol-5-yl)carbonohydrazonoyl dicyanide]	119	47	–
